Where two headings read alike, the source gives them in different places.
Assay: Antimicrobial activity assay: whole-cell MIC by broth microdilution (NCCLS M7-A6)
Format: cell-based
Procedure: Whole-cell antimicrobial activity was determined by broth microdilution using the National Committee for Clinical Laboratory Standards (NCCLS) recommended procedure, Document M7-A6, “Methods for Dilution Susceptibility Tests for Bacteria that Grow Aerobically”. The compounds were tested in serial two-fold dilutions ranging from 0.016 to 16 mcg/mL. Compounds were evaluated against a panel of Gram-positive organisms, including Staphylococcus aureus WCUH29, Streptococcus pneumoniae 1629, Streptococcus pyogenes CN 10, and Enterococcus faecalis 2. In addition, compounds were evaluated against a panel of Gram-negative strains including Haemophilus influenzae NEMC1, E. coli 7623, and Moraxella catarrhalis Ravasio. The minimum inhibitory concentration (MIC) was determined as the lowest concentration of compound that inhibited visible growth. A mirror reader was used to assist in determining the MIC endpoint.
Compounds of the present invention have MIC's ≦20 μg/ml versus all the organisms named above.

[1] = versus all the organisms named above (S. aureus WCUH29, S. pneumoniae 1629, S. pyogenes CN 10, E. faecalis 2, H. influenzae NEMC1, E. coli 7623, M. catarrhalis Ravasio), read-out: MIC

Row | SMILES | MIC [1] [µg/mL] | MIC [µg/mL]
1 | COc1ccc2ncc(F)c(CCN3CCC(NCc4ccc5c(c4)CCO5)CC3)c2n1.Cl.Cl [Example 178, N-(2,3-dihydro-1-benzofuran-5-ylmethyl)-1-{2-[3-fluoro-6-(methoxy)-1,5-naphthyridin-4-yl]ethyl}-4-piperidinamine dihydrochloride] | ≤ 2 | 
2 | Cl.Cl.O=C1CSc2ccc(CNC3CCN(CCc4c(Cl)cnc5ccc(Cl)cc45)CC3)nc2N1 [Example 27, 6-({1-[2-(3,6-Dichloro-quinolin-4-yl)-ethyl]-piperidin-4-ylamino}-methyl)-4H-pyrido[3,2-b][1,4]thiazin-3-one Dihydrochloride] | ≤ 2 | 
3 | COc1ccc2ncc(Cl)c(C(O)CN3CCC(NCc4cc5c(cn4)OCCO5)CC3)c2n1.Cl.Cl (single isomer, unassigned; enantiomer 1) [Example 35, {1-[2-(3-Chloro-6-methoxy-[1,5]naphthyridin-4-yl)-2-hydroxyethyl]-piperidin-4-yl}-(2,3-dihydro-[1,4]dioxino[2,3-c]pyridin-7-ylmethyl)-amine Dihydrochloride Enantiomer 1] | ≤ 2 | 
4 | COc1ccc2ncc(F)c(CCN3CCC(NCc4cc5c(nn4)SCC(=O)N5)CC3)c2n1.Cl.Cl [Example 58, 3-{[(1-{2-[3-fluoro-6-(methoxy)-1,5-naphthyridin-4-yl]ethyl}-4-piperidinyl)amino]methyl}-5H-pyridazino[3,4-b][1,4]thiazin-6(7H)-one dihydrochloride] | ≤ 2 | 
5 | COc1ccc2ncc(Cl)c(CCN3CC[C@H](NCc4cc5c(cn4)OCCO5)[C@H](O)C3)c2c1.Cl.Cl (single isomer, unassigned; enantiomer 1) [Example 45, cis-1-[2-(3-Chloro-6-methoxy-quinolin-4-yl)-ethyl]-4-[(2,3-dihydro-[1,4]dioxino[2,3-c]pyridin-7-ylmethyl)-amino]-piperidin-3-ol Dihydrochloride Enantiomer 1] | ≤ 2 | 
6 | COc1cc(F)c2ncc(F)c(CCN3CC[C@H](NC(=O)c4ccc5c(n4)NC(=O)CS5)[C@H](F)C3)c2c1.Cl (single isomer, unassigned; enantiomer 1) [Example 151, cis-N-(1-{2-[3,8-difluoro-6-(methoxy)-4-quinolinyl]ethyl}-3-fluoro-4-piperidinyl)-3-oxo-3,4-dihydro-2H-pyrido[3,2-b][1,4]thiazine-6-carboxamide hydrochloride Enantiomer 1] | ≤ 2 | 
7 | COc1ccc2ncc(Cl)c(CCN3CCC(NCc4ccc5c(n4)NC(=O)CS5)CC3)c2c1.Cl.Cl.Cl [Example 13, 6-({1-[2-(3-Chloro-6-methoxyquinolin-4-yl)ethyl]piperidin-4-ylamino}methyl)-4H-pyrido[3,2-b][1,4]thiazin-3-one Trihydrochloride] | ≤ 2 | 
8 | COc1cc(F)c2ncc(F)c(CCN3CC[C@H](NCc4cnc5c(c4)NC(=O)CS5)[C@H](O)C3)c2c1.Cl.Cl (single isomer, unassigned; enantiomer 1) [Example 72] | ≤ 2 | 
9 | COc1cc(F)c2ncc(F)c(CCN3CC[C@H](NCc4ccc5c(n4)NC(=O)CS5)[C@H](F)C3)c2c1.Cl.Cl (single isomer, unassigned; enantiomer 1) [Example 149, cis-6-{[(-1-{2-[3,8-difluoro-6-(methoxy)-4-quinolinyl]ethyl}-3-fluoro-4-piperidinyl)amino]methyl}-2H-pyrido[3,2-b][1,4]thiazin-3(4H)-one dihydrochloride, Enantiomer 1] | ≤ 2 | 
10 | COc1ccc2ncc(Cl)c(CCN3CCC(NCc4cc5c(cn4)OCCO5)(C(N)=O)CC3)c2n1.Cl.Cl [Example 91, 1-{2-[3-chloro-6-(methoxy)-1,5-naphthyridin-4-yl]ethyl}-4-[(2,3-dihydro[1,4]dioxino[2,3-c]pyridin-7-ylmethyl)amino]-4-piperidinecarboxamide dihydrochloride] | ≤ 2 | 
11 | COc1ccc2ncc(Cl)c(CCN3CC[C@H](NCc4cc5c(cn4)OCCO5)[C@H](O)C3)c2n1.Cl.Cl (single isomer, unassigned; enantiomer 1) [Example 29, (cis)-1-[2-(3-Chloro-6-methoxy-[1,5]naphthyridin-4-yl)-ethyl]-4-[(2,3-dihydro-[1,4]dioxino[2,3-c]pyridin-7-ylmethyl)-amino]-piperidin-3-ol Dihydrochloride Enantiomer 1] | ≤ 2 | 
12 | COc1ccc2ncc(F)c(CCN3CCC(NCc4cc5c(cn4)OCCC5)CC3)c2n1.Cl.Cl [Example 126, N-(3,4-dihydro-2H-pyrano[2,3-c]pyridin-6-ylmethyl)-1-{2-[3-fluoro-6-(methoxy)-1,5-naphthyridin-4-yl]ethyl}-4-piperidinamine dihydrochloride] | ≤ 2 | 
13 | Cc1ccc2ncc(Cl)c(CCN3CCC(NCc4ccc5c(n4)NC(=O)CS5)CC3)c2n1.Cl.Cl [Example 23, 6-({1-[2-(3-Chloro-6-methyl-[1,5]naphthyridin-4-yl)-ethyl]-piperidin-4-ylamino}-methyl)-4H-pyrido[3,2-b][1,4]thiazin-3-one Dihydrochloride] | ≤ 2 | 
14 | COc1ccc2ncc(F)c(CCN3CCC(CO)(NC(=O)c4ccc5c(n4)NC(=O)CS5)CC3)c2n1.Cl [Example 93, N-[1-{2-[3-fluoro-6-(methoxy)-1,5-naphthyridin-4-yl]ethyl}-4-(hydroxymethyl)-4-piperidinyl]-3-oxo-3,4-dihydro-2H-pyrido[3,2-b][1,4]thiazine-6-carboxamide hydrochloride] | ≤ 2 | 
15 | COc1ccc2ncc(F)c(C(O)CN3CCC(NCc4cc5c(cn4)OCCO5)CC3)c2c1.Cl.Cl (single isomer, unassigned; enantiomer 1) [Example 156, 2-{4-[(2,3-dihydro[1,4]dioxino[2,3-c]pyridin-7-ylmethyl)amino]-1-piperidinyl}-1-[3-fluoro-6-(methoxy)-4-quinolinyl]ethanol dihydrochloride Enantiomer 1] | ≤ 2 | 
16 | COc1cc(F)c2ncc(F)c(CCN3CC[C@H](NCc4ccc5c(n4)NC(=O)CO5)[C@H](F)C3)c2c1.Cl.Cl (single isomer, unassigned; enantiomer 1) [Example 145, cis-6-{[(1-{2-[3,8-difluoro-6-(methoxy)-4-quinolinyl]ethyl}-3-fluoro-4-piperidinyl)amino]methyl}-2H-pyrido[3,2-b][1,4]oxazin-3(4H)-one dihydrochloride, Enantiomer 1] | ≤ 2 | 
17 | COc1ccc2ncc(Cl)c(C(O)CN3CCC(NCc4ccc5c(n4)NC(=O)CO5)CC3)c2n1.Cl.Cl (racemic) [Example 1, 6-({1-[(Racemic)-2-(3-Chloro-6-methoxy-[1,5]naphthyridin-4-yl)-2hydroxy-ethyl]-piperidin-4-ylamino}-methyl)-4H-pyrido[3,2-b][1,4]oxazin-3-one Dihydrochloride] |  | ≤ 2
18 | COc1cc(F)c2ncc(Cl)c(CCN3CCC(NCc4ccc5c(n4)NC(=O)CS5)CC3)c2c1 [Example 160, 6-{[(1-{2-[3-chloro-8-fluoro-6-(methoxy)-4-quinolinyl]ethyl}-4-piperidinyl)amino]methyl}-2H-pyrido[3,2-b][1,4]thiazin-3(4H)-one] | ≤ 2 | 
19 | COc1ccc2ncc(F)c(CCN3CC[C@@H](NCc4cc5c(cn4)OCCO5)[C@@H](O)C3)c2n1.Cl.Cl (single isomer, unassigned; enantiomer 2) [Example 158] | ≤ 2 | 
20 | COc1cc(F)c2ncc(Cl)c(CCN3CC[C@H](NCc4ccc5c(n4)NC(=O)CS5)[C@H](O)C3)c2c1.Cl.Cl (single isomer, unassigned; enantiomer 1) [Example 97] | ≤ 2 | 
21 | COc1ccc2ncc(F)c(CCN3CCC(NCc4cnc5c(c4)NC(=O)CS5)CC3)c2c1.Cl.Cl [Example 84, 7-{[(1-{2-[3-fluoro-6-(methoxy)-4-quinolinyl]ethyl}-4-piperidinyl)amino]methyl}1H-pyrido[2,3-b][1,4]thiazin-2(3H)-one dihydrochloride] | ≤ 2 | 
22 | COc1cc(F)c2ncc(F)c(CCN3CC[C@H](NCc4ccc5c(n4)NC(=O)CO5)[C@H](O)C3)c2c1.Cl.Cl [Example 75, 6-{[((3R,4S)-1-{2-[3,8-difluoro-6-(methoxy)-4-quinolinyl]ethyl}-3-hydroxy-4-piperidinyl)amino]methyl}-2H-pyrido[3,2-b][1,4]oxazin-3(4H)-one dihydrochloride] | ≤ 2 | 
23 | COc1ccc2ncc(Cl)c(CCN3CC[C@H](NCc4ccc5c(n4)NC(=O)CO5)[C@H](O)C3)c2c1.Cl.Cl (single isomer, unassigned; enantiomer 1) [Example 5, 6-({(cis)-1-[2-(3-Chloro-6-methoxy-quinolin-4-yl)-ethyl]-3-hydroxy-piperidin-4-ylamino}-methyl)-4H-pyrido[3,2-b][1,4]oxazin-3-one Dihydrochloride Enantiomer 1] | ≤ 2 | 
24 | COc1ccc2ncc(F)c(CCN3CC[C@H](NCc4cnc5c(c4)NC(=O)CS5)[C@H](O)C3)c2c1.Cl.Cl (single isomer, unassigned; enantiomer 1) [Example 96] | ≤ 2 | 
25 | COc1ccc2ncc(F)c(CCN3CCC(NCC4=CC=C5CCCN=C5N4)CC3)c2c1.Cl.Cl [Example 77, 1-{2-[3-fluoro-6-(methoxy)-4-quinolinyl]ethyl}-N-(1,5,6,7-tetrahydro-1,8-naphthyridin-2-ylmethyl)-4-piperidinamine dihydrochloride] | ≤ 2 | 
26 | COc1ccc2ncc(F)c(CCN3CCC(NC(=O)c4ccc5c(n4)NC(=O)CO5)CC3)c2c1.Cl [Example 94, N-(1-{2-[3-fluoro-6-(methoxy)-4-quinolinyl]ethyl}-4-piperidinyl)-3-oxo-3,4-dihydro-2H-pyrido[3,2-b][1,4]oxazine-6-carboxamide hydrochloride] | ≤ 2 | 
